Legend:
[1] = target: T1, p56^Ick tyrosine kinase (Homo sapiens, UniProt P06239); assay: Inhibition of p56^Ick tyrosine kinase; type: biochemical; settings: human recombinant p56lck, 30 °C, 30 min, ATP 10 μM, RR-src peptide 0.75 mM; read-out: IC50 Isolated enzyme p56^lck
T1 construct: made in house; host or cells: E. coli
Description: Inhibition of p56^Ick tyrosine kinase
The activity of p56^Ick tyrosine kinase is determined by measuring the transfer of ^32 P-labelled phosphate from ^32 P-γ-ATP (10 μM) to the substrate RR-src peptide (0.75 mM). Human recombinant p56^Ick (expressed in E. coli) is used as the enzyme.
It is purified from the soluble fraction by means of a monoclonal antibody column and stored at -75° C. The compounds are tested in 10% DMSO in a concentration of 0.001-100 μM, The incubation is carried out at 30° C. for a period of 30 minutes in HEPES buffer (50 mM, pH 6.9) which contains manganese chloride (11 mM) and 0.5% BSA. The test is started by adding the enzyme and terminated by adding ice-cold KH2 PO4 (1M, pH 3.0). After centrifugation the radiolabelled peptide is separated from excess ATP in the supernatant by reversed phase HPLC. The peptide fraction is collected and the radioactivity is determined in a standard β- counter or on-line with a radiometer (Berthold). The inhibitory activity of the test compound is expressed as the micromolar concentration which is required for 50% inhibition (IC50 [μM]).
(§1) The inhibition of selected protein kinases in vitro and the inhibition of cell proliferation in HaCaT-cells by these compounds are set forth in the following Table.

[2] = target: cAMP-dependent protein kinase (PKA); assay: Inhibition of cAMP-dependent protein kinase (PKA); type: biochemical; settings: partially purified PKA from hog brain, histone H1, ATP 10 μM, 2 min at 32 °C; read-out: IC50 Isolated enzyme PKA
Description: Inhibition of cAMP-dependent protein kinase (PKA)
The activity of PKA is measured by measuring the transfer of ^32 P-labelled phosphate from ^32 P-γ-ATP (10 μM) to the substrate histone H1 (333 μg/ml) using partially purified PKA from hog brain (DEAE chromatography according to U. Kikkawa et al., Methods Enzymol. 99, 288, 1983). PKA is activated by 2 μM of cAMP in Tris HCl buffer (20 mM, pH 7.4). The compounds are tested in DMSO/buffer at a concentration of 0.001-100 μM. The test is started by adding the enzyme, takes 2 minutes at 32° C. and is terminated by adding 20% trichloroacetic acid (containing 1% SDS and 1% sodium pyrophosphate). The precipitated protein, which contains the radiolabelled histone, is separated from excess ATP by filtration through a nitrocellulose membrane filter. The radioactivity on the filter is determined in a scintillation counter. The inhibitory activity of the test compounds is expressed as the micromolar concentration which is required for 50% inhibition (IC50 [μM]).
as §1

[3] = target: protein kinase C (PKC); assay: Inhibition of protein kinase C (PKC); type: biochemical; settings: partially purified PKC from hog brain, histone H1, ATP 10 μM, 2 min at 32 °C; read-out: IC50 Isolated enzyme PCK
Description: Inhibition of protein kinase C (PKC)
The activity of PKC is measured by measuring the transfer of ^32 P-labelled phosphate from ^32 P-γ-ATP (10 μM) to the substrate histone H1 (200 μg/ml) using partially purified PKC from hog brain (DEAE chromatography according to U. Kikkawa et al., Methods Enzymol. 99, 288, 1983). PKC is activated by phospholipid vesicle prepared by sonicating a mixture of 0.05 ml of phosphatidylserine (10 mg/ml) and 0.005 ml of diolein (10 mg/ml) in 5 ml of Tris HCl buffer (20 mM, pH 7.4). The compounds are tested in DMSO/buffer at a concentration of 0.001-100 μM. The test is started by adding the enzyme, takes 2 minutes at 32° C. and is terminated by adding 20% trichloroacetic acid (containing 1% SDS and 1% sodium pyrophosphate). The precipitated protein with the labelled histone is separated from excess ATP by filtration over a nitrocellulose membrane filter. The radioactivity on the filter is measured in a scintillation counter. The inhibitory activity of the test compound is expressed as the micromolar concentration which is required for 50% inhibition (IC50 [μM]).
as §1

[4] = tested on: HaCaT cells; assay: Inhibition of HaCaT cell proliferation; type: cell-based; settings: Homo sapiens, [3H]-thymidine incorporation, 48 h at 37 °C
Description: Inhibition of HaCaT cell proliferation
HaCaT is a spontaneous immortalized human keratinoycte cell line (Boukamp et al. 1988) which has been used many times as a model system for hyperproliferative keratinoyctes. The incorporation of [^3 H]-thymidine was used to quantify the growing cells in the S phase of the cell cycle. The cells were cultivated with a 3:1 mixture of DMEM/F12 medium which had been supplemented with 5% FCS, EGF (10 μg/l), hydrocortisone (400 μg/l), cholera toxin (8.5 μg/l), insulin (5 μg/l), L-glutamine (2 mM) and penicillin/streptomycin. 200 μl of medium were placed in microtitre plates such that each sample contained 5000 cells. The test compounds were added in serial dilutions in the range of 1×10^-8 M to […] at the beginning of the cultivation. The cells were incubated at 37° C. for 48 hours. For the last 6 hours [^3 H]-thymidine was added ([…]). After digesting the cells with trypsin the amount of incorporated radioactivity was quantified with a liquid scintillation counter.
as §1

[5] = target: T2, EGF-receptor tyrosine kinase (Homo sapiens, UniProt P00533); assay: Inhibition of EGF-receptor Tyrosine Kinase; type: biochemical; settings: EGF-R from A431 cell membranes, 30 °C, 30 min, ATP 10 μM, RR-src peptide 0.75 mM; read-out: IC50 Isolated enzyme EGF-R
T2 construct: A membrane fraction from human A431 cells is used as the enzyme; endogenous in cells; host or cells: A431 cells, membrane fraction (Thom et al., Biochem. J. 168, 187 (1977))
T2 sequence (P00533 25-1210): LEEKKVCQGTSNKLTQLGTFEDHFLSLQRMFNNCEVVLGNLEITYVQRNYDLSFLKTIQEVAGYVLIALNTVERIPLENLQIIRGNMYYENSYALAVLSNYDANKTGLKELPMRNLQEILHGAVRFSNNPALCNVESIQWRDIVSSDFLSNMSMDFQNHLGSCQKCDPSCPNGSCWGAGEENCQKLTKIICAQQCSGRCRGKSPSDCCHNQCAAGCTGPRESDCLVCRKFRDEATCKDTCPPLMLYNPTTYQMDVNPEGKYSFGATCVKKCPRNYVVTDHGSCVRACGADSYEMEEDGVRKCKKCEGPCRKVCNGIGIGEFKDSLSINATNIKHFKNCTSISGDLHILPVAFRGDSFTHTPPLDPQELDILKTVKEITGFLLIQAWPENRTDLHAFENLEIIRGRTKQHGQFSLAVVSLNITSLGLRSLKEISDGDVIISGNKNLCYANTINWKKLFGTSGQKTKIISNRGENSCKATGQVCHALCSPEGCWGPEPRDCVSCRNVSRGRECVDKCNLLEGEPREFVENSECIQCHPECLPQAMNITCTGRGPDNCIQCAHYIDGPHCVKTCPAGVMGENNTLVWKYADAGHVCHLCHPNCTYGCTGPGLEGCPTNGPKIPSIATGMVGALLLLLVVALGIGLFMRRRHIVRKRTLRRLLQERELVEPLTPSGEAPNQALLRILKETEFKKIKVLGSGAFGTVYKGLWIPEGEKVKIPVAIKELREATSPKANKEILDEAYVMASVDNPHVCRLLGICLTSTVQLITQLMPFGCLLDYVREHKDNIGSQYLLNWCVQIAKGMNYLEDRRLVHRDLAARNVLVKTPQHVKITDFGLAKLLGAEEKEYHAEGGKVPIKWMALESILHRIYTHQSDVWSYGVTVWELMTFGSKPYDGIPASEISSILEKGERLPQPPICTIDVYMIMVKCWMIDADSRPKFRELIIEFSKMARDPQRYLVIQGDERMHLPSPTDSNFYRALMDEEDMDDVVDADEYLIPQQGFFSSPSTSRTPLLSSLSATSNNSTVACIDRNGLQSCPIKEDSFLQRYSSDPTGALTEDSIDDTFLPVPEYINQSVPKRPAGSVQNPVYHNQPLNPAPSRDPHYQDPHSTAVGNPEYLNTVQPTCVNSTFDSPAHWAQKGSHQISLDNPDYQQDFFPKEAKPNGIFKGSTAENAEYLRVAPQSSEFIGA
Description: Inhibition of EGF-receptor Tyrosine Kinase
The activity of EGF-receptor tyrosine kinase is determined by measuring the transfer of ^32 P-labelled phosphate from ^32 P-γ-ATP (10 μM) to the substrate RR-scr peptide* (0.75 mM). A membrane fraction from human A431 cells is used as the enzyme. It is isolated according to Thom et al., Biochem. J. 168, 187 (1977) and stored at -75° C. (4-6 mg protein/ml). The compounds are tested in 10% DMSO in a concentration of 0.001-100 μM. The incubation is carried out at 30° C. for a period of 30 minutes in Tris buffer (25 mM, pH 7.4) which contains magnesium acetate (30 mM), sodium vanadate (0.5 mM), 0.5% BSA and 0.05% Triton X-100. The membranes are pre-incubated with 2 μM of EGF at 4° C. for 90 minutes. The test is started by adding the enzyme (2 μg of membrane protein) and terminated by adding ice-cold KH2 PO4 (1M, pH 3.0). After centrifugation the labelled peptide is separated from excess ATP in the supernatant by reversed phase HPLC. The peptide fraction is collected and the radioactivity is measured in a standard β-counter or on-line with a radiometer (Berthold). The inibitory activity of the test compound is expressed as the mikromolar concentration which is required for 50% inhibition (IC50 [μM]).
*RR-src peptide=[Arg-Arg-Leu-Ile-Glu-Asp-Ala-Glu-Tyr-Ala-Ala-Arg-Gly]
as §1

[6] = tested on: mouse hair follicles; assay: Stimulation of cell proliferation in cultured mouse hair follicles; type: cell-based; settings: for EC50: read-out: concentration which resulted in a half-maximum stimulation of the DNA synthesis (EC50 value)
Description: Stimulation of cell proliferation in cultured mouse hair follicles
Mouse hair follicles are isolated and cultured according to the method described by Buhl et al., J. Invest. Dermatol. 92, 315 (1989). Whisker parts are removed from CD-1 mice aged 4 days and the hair follicles are carefully separated from surrounding tissue under the microscope. Hair follicles are cultured in M199 medium which contains 20% FBS and the cell proliferation is determined from the incorporation of [^3 H]-thymidinein DNA. The test compounds are dissolved in DMSO and added in serial dilutions in the range of 1×10^-8 to 1×10^-6 M at the beginning of the cultivation. After 1 day 5 μCi/ml of [^3 H]-thymidine are added to the culture medium and the follicles are incubated for a further 3 days. The hair follicles are then washed with phosphate-buffered saline solution in order to remove non-incorporated radioactivity and the DNA is solubilized by incubation with alkali overnight. The radioactivity incorporated into the follicular DNA is then measured using a liquid scintillation counter.

[7] = [3H]-thymidine incorporation, CD-1 mouse whisker follicles

T1 sequence (P06239 whole entry): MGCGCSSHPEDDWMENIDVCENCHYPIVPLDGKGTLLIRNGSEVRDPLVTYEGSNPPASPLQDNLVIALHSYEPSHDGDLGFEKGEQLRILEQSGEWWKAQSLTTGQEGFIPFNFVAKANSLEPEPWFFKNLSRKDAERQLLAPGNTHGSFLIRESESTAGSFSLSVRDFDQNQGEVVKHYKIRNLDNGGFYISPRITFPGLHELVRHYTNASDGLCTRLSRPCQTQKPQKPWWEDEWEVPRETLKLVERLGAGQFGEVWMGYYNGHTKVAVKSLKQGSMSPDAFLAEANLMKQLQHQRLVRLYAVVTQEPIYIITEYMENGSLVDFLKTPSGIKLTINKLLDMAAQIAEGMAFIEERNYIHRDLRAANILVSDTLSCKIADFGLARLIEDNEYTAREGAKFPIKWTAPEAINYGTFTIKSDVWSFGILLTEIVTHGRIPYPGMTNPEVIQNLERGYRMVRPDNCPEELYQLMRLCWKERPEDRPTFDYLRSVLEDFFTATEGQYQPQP

Cc1cc(C)c(-c2nc(-c3ccncc3)c(-c3ccc(Cl)cc3)[nH]2)c(C)c1 [Example 1, 4-[5-(4-chlorophenyl)-2-(2,4,6-trimethyphenyl)imidazol-4-yl]pyridine]
IC50 [1]: 2.2 µM | IC50 [2]: 6.3 µM | IC50 [3]: > 100 µM | IC50 [4]: 2 µM | IC50 [5]: 0.34 µM | activity at 0.3 µM ([6]; 96 h, at 0.3 μM, [3H]-thymidine incorporation, CD-1 mouse whisker follicles, read-out: maximum DNA synthesis value (compared with controls)): 211 ± 17% | EC50 [6, 7]: 0.1 µM | activity in this culture system compared with known hypotrichotic agents ([6]; mouse hair follicle culture): exceeded that of known hypotrichotic agents

Cc1cccc(-c2[nH]c(-c3c(C)cc(C)cc3C)nc2-c2ccncc2)c1 [Example 4, 4-[5-(3-methylphenyl)-2-(2,4,6-trimethylphenyl)imidazol-4-yl]pyridine]
IC50 [1]: 6 µM | IC50 [2]: 190 µM | IC50 [3]: > 100 µM | IC50 [4]: 2 µM | IC50 [5]: 0.8 µM

CC(C)c1cccc(C(C)C)c1-c1nc(-c2ccncc2)c(-c2ccc(Cl)cc2)[nH]1 [Example 7, 4-[5-(4-chlorophenyl)-2-(2,6-diisopropylphenyl)imidazol-4-yl]pyridine]
IC50 [1]: 3.1 µM | IC50 [2]: 0.47 µM | IC50 [3]: 100 µM | IC50 [4]: 3.5 µM | IC50 [5]: 0.13 µM

COC(=O)c1c(C)cc(C)c(-c2nc(-c3ccncc3)c(-c3ccc(Cl)cc3)[nH]2)c1C [Example 9, methyl 3-[5-(4-chlorophenyl)-4-pyridin-4-yl-imidazol-2-yl]2,4,6-trimethylbenzoate]
IC50 [1]: 3.8 µM | IC50 [2]: 6 µM | IC50 [3]: 80 µM | IC50 [4]: 0.23 µM | IC50 [5]: 0.14 µM

Cc1cc(C)c(-c2nc(-c3ccncc3)c(-c3ccc(Cl)cc3)[nH]2)c(C)c1CN1CCOCC1 [Example 11, 4-[3-[5-(4-chlorophenyl)-4-pyridin-4-yl-imidazol-2-yl]-2,4,6,-trimethylbenzyl]morpholine]
IC50 [1]: 5.1 µM | IC50 [2]: 43 µM | IC50 [3]: > 100 µM | IC50 [4]: 0.1 µM | IC50 [5]: 0.26 µM

Cc1cc(C)c(-c2nc(-c3ccncc3)c(-c3ccc(Cl)cc3)[nH]2)c(C)c1CN(C)C [Example 12, [3-[5-(4-chlorophenyl)-4-pyridin-4-yl-imidazol-2-yl]-2,4,6,-trimethylbenzyl]dimethylamine]
IC50 [1]: 1.65 µM | IC50 [2]: 5 µM | IC50 [3]: 7 µM | IC50 [4]: 0.57 µM | IC50 [5]: 0.05 µM

Cc1cc(C)c(-c2nc(-c3ccncc3)c(-c3ccc(Cl)cc3)[nH]2)c(C)c1CN1CCN(C)CC1 [Example 13, 1-[3-[5-(4-chlorophenyl)-4-pyridin-4-yl-imidazol-2-yl]-2,4,6,-trimethylbenzyl]-4-methylpiperazine]
IC50 [1]: 1.8 µM | IC50 [2]: 1.5 µM | IC50 [3]: 37 µM | IC50 [4]: 0.1 µM | IC50 [5]: 0.05 µM

Cc1cc(C)c([N+](=O)[O-])c(C)c1-c1nc(-c2ccncc2)c(-c2ccc(Cl)cc2)[nH]1 [Example 15, 4-[5-(4-chlorophenyl)-2-(2,4,6-trimethyl-3-nitrophenyl)-imidazol-4-yl]pyridine]
IC50 [1]: 4.95 µM | IC50 [4]: 0.67 µM | IC50 [5]: 0.78 µM

Cc1cc(C)c(-c2nc(-c3ccncc3)c(-c3ccc(Cl)cc3)[nH]2)c(C)c1O [Example 16, 3-[5-(4-chlorophenyl)-4-pyridin-4-yl-imidazol-2-yl]-2,4,6,-trimethylphenol]
IC50 [1]: 2.2 µM | IC50 [4]: 0.8 µM | IC50 [5]: 0.31 µM

Nc1cccc(Cl)c1-c1nc(-c2ccncc2)c(-c2ccc(Cl)cc2)[nH]1 [Example 18, 3-chloro-2-[5-(4-chlorophenyl)-4-pyridin-4-yl-imidazol-2-yl]phenylamine]
IC50 [1]: 14 µM | IC50 [2]: 1.8 µM | IC50 [3]: 23 µM | IC50 [4]: 2 µM | IC50 [5]: 0.29 µM

Nc1cc(N2CCCCC2)nc(N)[n+]1[O-] [minoxidil, reference compound]
EC50 [6, 7]: 200 µM | stimulation of hair follicle DNA synthesis (compared with controls) ([6]; concentration not given, comparison agent, 5760 min): 160±15%
